Tests used:
HCT15 cells = assay: Crystal Violet Cell Cytotoxicity Assay; type: cell-based; conditions: Homo sapiens, HCT-15; 2 mM, 48 hours, QMAP, compared to QMAP only; read-out: decrease in cell viability
Procedure: HCT15 cells were plated in 1:1 DMEM: QMAP media on a clear 96-well plate. After 18 hours, cells were treated with 200 μl of QMAP (CTRL) or QMAP plus an amino acid (2 mM). Cells were then grown for 48 hours, followed by a live/dead assay using the Crystal Violet Cell Cytotoxicity Assay Kit (BioVision, #K329) according to the manufacturer's directions. Briefly, cells were washed with 200 μl of 1× washing solution and incubated in 50 μl of crystal violet staining solution for 20 minutes. Cells were washed four times with 200 μl of 1× washing solution to remove dead cells. Cells were then incubated in 100 μl of solubilization solution for 20 minutes, and absorbance was measured at 595 nm.
An amino acid screen of all 20 essential and non-essential amino acids was performed to assess the differential effects of amino acids on cancer cell proliferation. Because commercially available cell culture media such as DMEM or RPMI contain variable concentrations of amino acids, a chemically defined, custom minimal media was designed containing all amino acids present at 0.3 mM, referred to as QMAP. HCT15 cells, a colon cancer cell line, were plated in 50:50 DMEM: QMAP and left to attach overnight. […] After 48 hours, cell proliferation was measured by crystal violet dye, which binds to ribose-like molecules such as DNA and assumes dead cells become unattached and are washed away.

293T = assay: CellTiter-Glo Luminescent Cell Viability Assay; type: cell-based, human; conditions: 2 mM, 24 hours, DMEM
Procedure: (§1) HT29, 293T, U2OS, and 3T3-LI cells were plated on an opaque 96-well plate in 1:1 DMEM. […] At the appropriate time point, 100 μl of CellTiter-Glo reagent (Promega #G7570) was added to each well. The plate was gently mixed for 2 minutes to induce lysis, incubated at room-temperature for 10 minutes, and then luminescence was measured.
(§2) To test whether tryptophan inhibition of growth applied to other cell lines and persisted in conventional cell culture media, two human cancer cell lines (HT29, U2OS), a transformed human embryonic kidney cell line (293T), and a mouse, fibroblast-like cell line (3T3-L1) were grown in DMEM for 24 hours and then treated with 2 mM tryptophan or vehicle. After 24 hours, cells were assayed by CellTiter-Glo, which indicates cell viability by measuring ATP production.

HT29 = assay: CellTiter-Glo Luminescent Cell Viability Assay; type: cell-based, human; conditions: 2 mM, 24 hours, DMEM
Procedure: as §1, §2

U2OS = assay: CellTiter-Glo Luminescent Cell Viability Assay; type: cell-based, human; conditions: 2 mM, 24 hours, DMEM
Procedure: as §1
as §2, with “After 24 hours, cells were assayed by CellTiter-Glo, which indicates cell viability by measuring ATP production.” left out

HCT116 cells = assay: Metabolic profiling of tryptophan metabolite-treated cells, LC-MS; type: cell-based, human
Procedure: […] Cell plates were lyophilized overnight before metabolite extraction. To extract metabolites, 1 ml of an extraction buffer composed of 2:2:1 methanol/acetonitrile/water with internal standards at 1 μg/ml each (D4-Citric Acid, 13C5-Glutamine, 13C5-Glutamic Acid, 13C6-Lysine, 13C5-Methionine, 13C3-Serine, D4-Succinic Acid, 13C11-Tryptophan, and D8-Valine; Cambridge Isotope Laboratories) was added to the lyophilized cell samples. Cells were scraped for 20 seconds and collected into Eppendorf tubes, flash-frozen in liquid nitrogen, and sonicated for 10 minutes.
Samples were then placed on a rotating platform at −20° C. for 1 hour and centrifuged at 4° C. for 10 minutes at 21,000×g. 300 μL of the cleared metabolite extracts were transferred to fresh tubes for additional processing. An equal volume of each extract was pooled to serve as a quality control (QC) sample, which was analyzed at the beginning, end, and at a regular interval throughout an instrument run. Extraction buffer alone was analyzed as a processing blank sample. Metabolite extracts, the quality control sample, and the processing blank were evaporated to dryness using a speed-vacuum.
Dried extracts were reconstituted in 30 μL of acetonitrile/water (1:1, V/V), vortexed for 10 minutes, and incubated at −20° C. for 18 hours. Samples were then centrifuged at 4° C. for 2 minutes at 21,000×g and the supernatant was transferred to autosampler vials for analysis.
For LC chromatographic separation, 2 μL of reconstituted metabolite extracts, QC sample, and processing blank were run on a Millipore SeQuant ZIC-PHILIC (2.1×150 mm, 5 um particle size, Millipore Sigma #150460) column with a ZIC-PHILIC guard column (20×2.1 mm, Millipore Sigma #150437) attached to a Thermo Vanquish Flex UHPLC. The mobile phase comprised Buffer A [20 mM (NH4)2CO3, 0.1% NH4OH (v/v)] and Buffer B [acetonitrile]. The chromatographic gradient was run at a flow rate of 0.150 mL/min as follows: 0-20 min-linear gradient from 80 to 20% Buffer B; 20-20.5 min-linear gradient from 20 to 80% Buffer B; and 20.5-28 min-hold at 80% Buffer B. Data were acquired using a Thermo Q Exactive MS operated in full-scan, polarity-switching mode with a spray voltage set to 3.0 kV, the heated capillary held at 275° C., and the HESI probe held at 350° C. The sheath gas flow was set to 40 units, the auxiliary gas flow was set to 15 units, and the sweep gas flow was set to 1 unit. MS data acquisition was performed with polarity switching in a range of m/z 70-1,000, with the resolution set at 70,000, the AGC target at 10e6, and the maximum injection time at 200 ms. The QC sample was analyzed at the beginning and end of the LC-MS run and after every 10 samples.
Acquired LC-MS and GC-MS data were processed using the Thermo Scientific TraceFinder software. Targeted metabolites were identified by matching accurate mass and retention times to the University of Iowa Metabolomics Core Facility's in-house library of confirmed standards. After peak area integration by TraceFinder, NOREVA software was applied for signal drift correction on a metabolite-to-metabolite basis using the pooled QC sample that had been analyzed throughout the instrument run. Within individual samples, Post-NOREVA metabolite levels were divided by the total metabolite load (sum of all metabolite values) to equally weight individual metabolites for comparison across samples.

For `N[C@@H](Cc1c[nH]c2ccccc12)C(=O)O` [tryptophan, L-tryptophan], the cytotoxicity at 2000 µM (HCT15 cells) was about 50%, the “cell viability compared to vehicle” value (293T) was “significant decreases” and the “cell viability compared to vehicle” value (HT29) was “significant decreases”. For the same compound, the “cell viability compared to vehicle” value (U2OS) was “significant decreases”, the xanthommatin level (HCT116 cells; IFN-γ (50 ng/μL) for 24 hours, then tryptophan 1 mM for 6 hours, QMAP) was “only tryptophan metabolite to significantly increase” and the 3HK level (HCT116 cells; tryptophan supplementation) was “not detectable”.

— patent US20250019644A1, “Quantitatively Mapping Amino Acid Properties (QMAP) Cell Culture Media” (UNIVERSITY OF IOWA RESEARCH FOUNDATION, priority 2023, published 2025)
